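Tested at 5 concentrations; 48 h exposure; 96-well plates; endpoints linearly interpolated, else capped at highest concentration. The concentration for 50% growth inhibition is given as GI50. TGI denotes the concentration required for complete inhibition of growth.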
How the values were obtained:
Experiment in all cases: DTP human tumour cell line panel, 48 h
SNB-19 CNS = tested on: SNB-19 CNS
NCI-H226 lung = tested on: NCI-H226 lung
HT29 colon = tested on: HT29 colon
SK-MEL-5 melanoma = tested on: SK-MEL-5 melanoma
NCI-H23 lung = tested on: NCI-H23 lung
K-562 leukemia = tested on: K-562 leukemia
A549 NSCLC = tested on: A549 NSCLC
EKVX NSCLC = tested on: EKVX NSCLC
SNB-75 CNS = tested on: SNB-75 CNS
HCC-2998 colon = tested on: HCC-2998 colon
MALME-3M melanoma = tested on: MALME-3M melanoma
MOLT-4 leukemia = tested on: MOLT-4 leukemia
SF-295 CNS = tested on: SF-295 CNS
IGROV1 ovarian = tested on: IGROV1 ovarian
CAKI-1 renal = tested on: CAKI-1 renal
BT-549 breast = tested on: BT-549 breast
U251 CNS = tested on: U251 CNS
HCT-15 colon = tested on: HCT-15 colon
SK-MEL-28 melanoma = tested on: SK-MEL-28 melanoma
HL-60(TB) leukemia = tested on: HL-60(TB) leukemia
OVCAR-5 ovarian = tested on: OVCAR-5 ovarian
SK-MEL-2 melanoma = tested on: SK-MEL-2 melanoma
ACHN renal = tested on: ACHN renal
PC-3 prostate = tested on: PC-3 prostate
UACC-257 melanoma = tested on: UACC-257 melanoma
A498 renal = tested on: A498 renal
KM12 colon = tested on: KM12 colon
MCF7 breast = tested on: MCF7 breast
NCI/ADR-RES ovarian = tested on: NCI/ADR-RES ovarian
HOP-92 NSCLC = tested on: HOP-92 NSCLC
SF-539 CNS = tested on: SF-539 CNS
LOX IMVI melanoma = tested on: LOX IMVI melanoma
786-0 renal = tested on: 786-0 renal
NCI-H460 lung = tested on: NCI-H460 lung
UACC-62 melanoma = tested on: UACC-62 melanoma
UO-31 renal = tested on: UO-31 renal
M14 melanoma = tested on: M14 melanoma
OVCAR-3 ovarian = tested on: OVCAR-3 ovarian
OVCAR-8 ovarian = tested on: OVCAR-8 ovarian
RXF 393 renal = tested on: RXF 393 renal
SN12C renal = tested on: SN12C renal
HOP-62 NSCLC = tested on: HOP-62 NSCLC
SR leukemia = tested on: SR leukemia
MDA-MB-231 breast = tested on: MDA-MB-231 breast
SW-620 colon = tested on: SW-620 colon
HCT-116 colon = tested on: HCT-116 colon
OVCAR-4 ovarian = tested on: OVCAR-4 ovarian
HS 578T breast = tested on: HS 578T breast
SK-OV-3 ovarian = tested on: SK-OV-3 ovarian
COLO 205 colon = tested on: COLO 205 colon
TK-10 renal = tested on: TK-10 renal
CCRF-CEM leukemia = tested on: CCRF-CEM leukemia
DU-145 prostate = tested on: DU-145 prostate
MDA-MB-435 = tested on: MDA-MB-435
NCI-H522 lung = tested on: NCI-H522 lung
RPMI-8226 leukemia = tested on: RPMI-8226 leukemia
SF-268 CNS = tested on: SF-268 CNS

## Cn1c(=O)n2n(c1=O)[C@@H](c1ccccc1)[C@H]2c1ccccc1
SNB-19 CNS
  TGI: > 100 µM
NCI-H226 lung
  TGI: > 100 µM
HT29 colon
  TGI: > 100 µM
SK-MEL-5 melanoma
  TGI: > 100 µM
NCI-H23 lung
  TGI: > 100 µM
K-562 leukemia
  TGI: > 100 µM
A549 NSCLC
  TGI: > 100 µM
EKVX NSCLC
  TGI: > 100 µM
SNB-75 CNS
  TGI: > 100 µM
HCC-2998 colon
  TGI: > 100 µM
MALME-3M melanoma
  TGI: > 100 µM
MOLT-4 leukemia
  TGI: > 100 µM
SF-295 CNS
  TGI: > 100 µM
IGROV1 ovarian
  TGI: > 100 µM
CAKI-1 renal
  TGI: > 100 µM
BT-549 breast
  TGI: > 100 µM
U251 CNS
  TGI: > 100 µM
HCT-15 colon
  TGI: > 100 µM
SK-MEL-28 melanoma
  TGI: > 100 µM
HL-60(TB) leukemia
  TGI: > 100 µM
OVCAR-5 ovarian
  TGI: > 100 µM
SK-MEL-2 melanoma
  TGI: > 100 µM
ACHN renal
  TGI: > 100 µM
PC-3 prostate
  TGI: > 100 µM
UACC-257 melanoma
  TGI: > 100 µM
A498 renal
  TGI: > 100 µM
KM12 colon
  TGI: > 100 µM
MCF7 breast
  TGI: > 100 µM
NCI/ADR-RES ovarian
  TGI: > 100 µM
HOP-92 NSCLC
  TGI: > 100 µM
SF-539 CNS
  TGI: > 100 µM
LOX IMVI melanoma
  TGI: > 100 µM
786-0 renal
  TGI: > 100 µM
NCI-H460 lung
  TGI: > 100 µM
UACC-62 melanoma
  TGI: > 100 µM
UO-31 renal
  TGI: > 100 µM
M14 melanoma
  TGI: > 100 µM
OVCAR-3 ovarian
  TGI: > 100 µM
OVCAR-8 ovarian
  TGI: > 100 µM
RXF 393 renal
  TGI: > 100 µM
SN12C renal
  TGI: > 100 µM
HOP-62 NSCLC
  TGI: > 100 µM
SR leukemia
  TGI: > 100 µM
MDA-MB-231 breast
  TGI: > 100 µM
SW-620 colon
  TGI: > 100 µM
HCT-116 colon
  TGI: > 100 µM
OVCAR-4 ovarian
  TGI: > 100 µM
HS 578T breast
  TGI: > 100 µM
SK-OV-3 ovarian
  TGI: > 100 µM
COLO 205 colon
  TGI: > 100 µM
TK-10 renal
  TGI: > 100 µM
CCRF-CEM leukemia
  TGI: > 100 µM

## Cc1ccc(S(=O)(=O)OC[C@@]2(C)CC[C@]3(C)CC[C@]4(C)C(=CC[C@@H]5[C@@]6(C)CCCNC(C)(C)[C@@H]6CC[C@]54C)[C@@H]3C2)cc1
SNB-75 CNS
  GI50: 1.59 µM
  TGI: 3.1 µM
DU-145 prostate
  GI50: 1.68 µM
  TGI: 3.13 µM
CAKI-1 renal
  GI50: 1.6 µM
  TGI: 2.94 µM
SK-MEL-28 melanoma
  GI50: 1.75 µM
  TGI: 3.21 µM
OVCAR-5 ovarian
  GI50: 1.74 µM
  TGI: 3.2 µM
SK-MEL-2 melanoma
  GI50: 1.82 µM
  TGI: 3.34 µM
A498 renal
  GI50: 1.66 µM
  TGI: 3.16 µM
KM12 colon
  GI50: 1.82 µM
  TGI: 3.43 µM
NCI/ADR-RES ovarian
  GI50: 2.02 µM
  TGI: 4.87 µM
NCI-H460 lung
  GI50: 1.36 µM
  TGI: 2.85 µM
UACC-62 melanoma
  GI50: 1.83 µM
  TGI: 3.32 µM
UO-31 renal
  GI50: 1.39 µM
  TGI: 2.87 µM
RXF 393 renal
  GI50: 1.63 µM
  TGI: 3.33 µM
SW-620 colon
  GI50: 1.32 µM
  TGI: 2.82 µM
HS 578T breast
  GI50: 1.86 µM
  TGI: 4 µM

## Cn1c(=O)cc(N2CCCC2)[nH]c1=O
SNB-19 CNS
  TGI: > 100 µM
MDA-MB-435
  TGI: > 100 µM
NCI-H226 lung
  TGI: > 100 µM
HT29 colon
  TGI: > 100 µM
SK-MEL-5 melanoma
  TGI: > 100 µM
NCI-H23 lung
  TGI: > 100 µM
K-562 leukemia
  TGI: > 100 µM
A549 NSCLC
  TGI: > 100 µM
EKVX NSCLC
  TGI: > 100 µM
SNB-75 CNS
  TGI: > 100 µM
HCC-2998 colon
  TGI: > 100 µM
MALME-3M melanoma
  TGI: > 100 µM
MOLT-4 leukemia
  TGI: > 100 µM
DU-145 prostate
  TGI: > 100 µM
SF-295 CNS
  TGI: > 100 µM
IGROV1 ovarian
  TGI: > 100 µM
CAKI-1 renal
  TGI: > 100 µM
BT-549 breast
  TGI: > 100 µM
U251 CNS
  TGI: > 100 µM
HCT-15 colon
  TGI: > 100 µM
SK-MEL-28 melanoma
  TGI: > 100 µM
HL-60(TB) leukemia
  TGI: > 100 µM
OVCAR-5 ovarian
  TGI: > 100 µM
SK-MEL-2 melanoma
  TGI: > 100 µM
ACHN renal
  TGI: > 100 µM
PC-3 prostate
  TGI: > 100 µM
UACC-257 melanoma
  TGI: > 100 µM
KM12 colon
  TGI: > 100 µM
MCF7 breast
  TGI: > 100 µM
NCI-H522 lung
  TGI: > 100 µM
RPMI-8226 leukemia
  TGI: > 100 µM
NCI/ADR-RES ovarian
  TGI: > 100 µM
HOP-92 NSCLC
  TGI: > 100 µM
SF-539 CNS
  TGI: > 100 µM
LOX IMVI melanoma
  TGI: > 100 µM
786-0 renal
  TGI: > 100 µM
NCI-H460 lung
  TGI: > 100 µM
M14 melanoma
  TGI: > 100 µM
OVCAR-8 ovarian
  TGI: > 100 µM
SF-268 CNS
  TGI: > 100 µM
SN12C renal
  TGI: > 100 µM
HOP-62 NSCLC
  TGI: > 100 µM
SR leukemia
  TGI: > 100 µM
MDA-MB-231 breast
  TGI: > 100 µM
SW-620 colon
  TGI: > 100 µM
HCT-116 colon
  TGI: > 100 µM
OVCAR-4 ovarian
  TGI: > 100 µM
COLO 205 colon
  TGI: > 100 µM
TK-10 renal
  TGI: > 100 µM
CCRF-CEM leukemia
  TGI: > 100 µM

## ClCCN(CCCl)c1ccc(CNCCCNCc2ccc(N(CCCl)CCCl)cc2)cc1
NCI-H226 lung
  TGI: 30.3 µM
A549 NSCLC
  TGI: > 100 µM
HCC-2998 colon
  TGI: 5.2 µM
DU-145 prostate
  TGI: > 100 µM
CAKI-1 renal
  TGI: 27.2 µM
BT-549 breast
  TGI: 9.85 µM
SK-MEL-28 melanoma
  TGI: 3.18 µM
HL-60(TB) leukemia
  TGI: 2.67 µM
OVCAR-5 ovarian
  TGI: > 100 µM
PC-3 prostate
  TGI: 26.5 µM
UACC-257 melanoma
  TGI: 4.71 µM
A498 renal
  TGI: 33.8 µM
RPMI-8226 leukemia
  TGI: > 100 µM
NCI/ADR-RES ovarian
  TGI: > 100 µM
HOP-92 NSCLC
  TGI: 26.6 µM
M14 melanoma
  TGI: > 100 µM
SR leukemia
  TGI: 1.29 µM
MDA-MB-231 breast
  TGI: 5.37 µM
SW-620 colon
  TGI: > 100 µM
HCT-116 colon
  TGI: > 100 µM
HS 578T breast
  TGI: 7.81 µM
COLO 205 colon
  TGI: 3.29 µM
TK-10 renal
  TGI: 5.25 µM
CCRF-CEM leukemia
  TGI: > 100 µM

## Fc1ccc(-c2nc(Nc3ccc(-c4nc5ccccc5[nH]4)cc3)nc(N3CCOCC3)n2)cc1
SK-MEL-5 melanoma
  GI50: 1.69 µM
  TGI: 3.13 µM
A549 NSCLC
  GI50: 0.666 µM
  TGI: 2.13 µM
DU-145 prostate
  GI50: 0.452 µM
  TGI: 1.64 µM
CAKI-1 renal
  GI50: 1.41 µM
  TGI: 2.72 µM
KM12 colon
  GI50: 0.37 µM
  TGI: 1.41 µM
HOP-92 NSCLC
  GI50: 1.3 µM
  TGI: 2.7 µM
OVCAR-3 ovarian
  GI50: 0.374 µM
  TGI: 1.37 µM
OVCAR-8 ovarian
  GI50: 1.12 µM
  TGI: 2.61 µM
SW-620 colon
  GI50: 0.186 µM
  TGI: 0.372 µM
OVCAR-4 ovarian
  GI50: 1.04 µM
  TGI: 2.4 µM
HS 578T breast
  GI50: 0.7 µM
  TGI: 3.02 µM
SK-OV-3 ovarian
  GI50: 1.84 µM
  TGI: 3.28 µM
TK-10 renal
  GI50: 1.96 µM
  TGI: 3.42 µM

Source: PubChem BioAssay (NCI)
